Test results taken from patent US11260079B2, “Dosing regimens for the mobilization of hematopoietic stem and progenitor cells” (Magenta Therapeutics, Inc., priority 2017, dated 2022).

Legend:
[1] = test system: CD34^+ hematopoietic stem and progenitor cells; conditions: Rhesus monkeys; plerixafor 1 mg/kg subcutaneously; median value
Experimental: (§1) Male rhesus macaques were treated with AMD3100 alone or in combination with Gro-β T. Blood was collected immediately prior to and 0.5, 1, 2, 4 and 24 hours after treatment and analyzed by multicolor flow cytometry to quantitate HSPC numbers. Additional aliquots of mobilized blood were plated in methylcellulose and CFU were enumerated seven days later.
(§2) The data shown in FIGS. 7 and 8 include the percentage of whole blood accounted for by CD34^+ hematopoietic stem and progenitor cells for each treatment group. Absolute numbers and fold change in CD34^+ cells per μL of peripheral blood were quantified with a single platform quantitative method. Data shown in FIGS. 7 and 8 are expressed as mean±SEM and represent 5 animals per group. Statistical significance was determined based on 2-way ANOVA with post-hoc Dunnett's multiple comparisons test (* p<0.05, ** p<0.01, **** p<0.0001).
as §2, with “9” for “7”, “10” for “8”, “CD34^+ CD90^+ CD45RA^−” for “CD34^+”, “are shown.” for “were quantified with a single platform quantitative method.”, “p<0.05. **p<0.01, *** p<0.001,” for “p<0.05, ** p<0.01,”
Additional data summarizing the mobilization of CD34^+ cells (e.g., CD34^+ CD90^+ CD45RA^− cells) in Rhesus monkeys using various doses of Gro-beta T and AMD3100 are reported in TABLES 8-11, below. Quantities are reported in TABLES 8-11 using the following notation: “Median value (Minimum value observed−maximum value observed).”

[2] = test system: white blood cells, neutrophils, lymphocytes and monocytes; conditions: Rhesus monkeys; plerixafor 1 mg/kg subcutaneously; median value
Experimental: as §1
Animals were mobilized with AMD3100 alone or in combination with Gro-β T. Peripheral blood was collected at the time points shown and white blood cells enumerated on a HESKA Hematology Analyzer. Total number of white blood cells, neutrophils, lymphocytes and monocytes per μL of peripheral blood were determined. Data shown in FIGS. 2-5 are expressed as mean±SEM and represent 5 animals per group. Statistical significance was determined based on 2-way ANOVA with post-hoc Dunnett's multiple comparisons test (** p<0.01).

[3] = test system: NOD scid gamma (NSG) mice; assay: Xenograft GVHD model; assay type: in vivo; conditions: for numbers of T-cells as compared to mice transplanted with Gro-β T and AMD3100-mobilized PBMCs: NSG mice, day 14 post-transplant; for mice died of aGVHD at day 24 / mice remained alive at day 60 post-transplant: sublethally irradiated NSG mice transplanted with 6×10^6 mobilized PBMCs
Experimental: To assess whether these immunosuppressive cells may prevent GVHD, we developed a xenograft GVHD model in NOD scid gamma (NSG) mice, which are immunodeficient mice. Gro-β T and AMD3100 mobilized peripheral blood (6×10^6 PBMCs) containing a high percentage of CD34^dim cells were injected into sublethally irradiated NSG mice. This was compared to unmobilized primate PBMCs (6×10^6 PBMCs) containing a relatively low numbers of CD34^dim cells and G-CSF mobilized primate PBMCs (6×10^6 PBMCs).

[4] = test system: hematopoietic stem and progenitor cell mobilization; conditions: cited from earlier work; for potency of hematopoietic stem and progenitor cell mobilization relative to Gro-β: described in U.S. Pat. Nos. 6,080,398 and 6,447,766
[5] = test system: stem and progenitor cells (LT-HSC); assay: Mobilization of stem and progenitor cells in mice; assay type: in vivo; conditions: 15 minutes after a single injection
CD34^dim cells = assay: Mobilization of CD34^dim cells, flow cytometry; assay type: in vivo; conditions: Rhesus macaques; 4 hours after the last dose of G-CSF; n=3
Experimental: Cells were mobilized according to the method of Example 1. A sample of peripheral blood was tested using a flow cytometer for the markers CD34, CD11b, CD14, CD16, CD45, and SSC.
Rhesus macaques were treated with Gro-β T, […], Gro-β T and AMD3100, or G-CSF alone. A sample of peripheral blood was tested using a flow cytometry.

In the case of `c1cc(CN2CCCNCCNCCCNCC2)ccc1CN1CCCNCCNCCCNCC1` [plerixafor, 1,1′-[1,4-phenylenebis(methylene)]-bis-1,4,8,11-tetra-azacyclotetradecane], the “Fold increase vs. baseline following sc administration of AMD3100: CD34^+” value [1] is reported as 9.1 fold, the “Fold increase vs. baseline following sc administration of AMD3100: CD34^+ CD90^+ CD54RA^−” value [1] is reported as 14.9 fold and the “Quantity of cells observed 4 hours following sc administration of AMD3100: CD34^+” value [1] is reported as 41054. For the same molecule, the “Quantity of cells observed 4 hours following sc administration of AMD3100: CD34^+ CD90^+ CD54RA^−” value [1] was 14820, the “Ratio of fold increase of CD34^+ CD90^+ CD45RA^− cells to other cell populations: CD34^+” value [1] was 1.4 and the “Ratio of fold increase of CD34^+ CD90^+ CD45RA^− cells to other cell populations: Lymphocytes” value [1] was 5.7. The “Ratio of fold increase of CD34^+ CD90^+ CD45RA^− cells to other cell populations: Monocytes” value [1] was 1.6, the “Ratio of fold increase of CD34^+ CD90^+ CD45RA^− cells to other cell populations: Neutrophils” value [1] was 3.0 and the “Ratio of fold increase of CD34^+ CD90^+ CD45RA^− cells to other cell populations: WBCs” value [1] was 3.7. The “Ratio of fold increase of CD34^+ cells to other cell populations: CD34^+ CD90^+ CD54RA^−” value [1] was 0.7, the “Ratio of fold increase of CD34^+ cells to other cell populations: Lymphocytes” value [1] was 4.0 and the “Ratio of fold increase of CD34^+ cells to other cell populations: Monocytes” value [1] was 1.2. The “Ratio of fold increase of CD34^+ cells to other cell populations: Neutrophils” value [1] was 2.1, the “Ratio of fold increase of CD34^+ cells to other cell populations: WBCs” value [1] was 2.3 and the “Ratio of quantity of CD34^+ CD90^+ CD45RA^− cells to other cell populations: CD34^+” value [1] was 0.352. The “Ratio of quantity of CD34^+ CD90^+ CD45RA^− cells to other cell populations: Lymphocytes” value [1] was 0.0011, the “Ratio of quantity of CD34^+ CD90^+ CD45RA^− cells to other cell populations: Monocytes” value [1] was 0.0039 and the “Ratio of quantity of CD34^+ CD90^+ CD45RA^− cells to other cell populations: Neutrophils” value [1] was 0.0006. For the same molecule, the “Ratio of quantity of CD34^+ CD90^+ CD45RA^− cells to other cell populations: WBCs” value [1] was 0.0003, the “Ratio of quantity of CD34^+ cells to other cell populations: CD34^+ CD90^+ CD54RA^−” value [1] was 2.838 and the “Ratio of quantity of CD34^+ cells to other cell populations: Lymphocytes” value [1] was 0.0025. For the same molecule, the “Ratio of quantity of CD34^+ cells to other cell populations: Monocytes” value [1] was 0.0111, the “Ratio of quantity of CD34^+ cells to other cell populations: Neutrophils” value [1] was 0.0015 and the “Ratio of quantity of CD34^+ cells to other cell populations: WBCs” value [1] was 0.0009. For the same molecule, the “Fold increase vs. baseline following sc administration of AMD3100: Lymphocytes” value [2] was 2.5 fold, the “Fold increase vs. baseline following sc administration of AMD3100: Monocytes” value [2] was 7.9 fold and the “Fold increase vs. baseline following sc administration of AMD3100: Neutrophils” value [2] was 5.0 fold. The “Fold increase vs. baseline following sc administration of AMD3100: WBCs” value [2] was 2.3 fold, the “Quantity of cells observed 4 hours following sc administration of AMD3100: Lymphocytes” value [2] was 1.35E+07 and the “Quantity of cells observed 4 hours following sc administration of AMD3100: Monocytes” value [2] was 3.10E+06. For the same molecule, the “Quantity of cells observed 4 hours following sc administration of AMD3100: Neutrophils” value [2] was 2.10E+07, the “Quantity of cells observed 4 hours following sc administration of AMD3100: WBCs” value [2] was 3.90E+07 and the “numbers of T-cells as compared to mice transplanted with Gro-β T and AMD3100-mobilized PBMCs” value [3] was “approximately 60 fold”. For the same molecule, the “mice died of aGVHD at day 24” value [3] was 5/16 and the “mice remained alive at day 60 post-transplant” value [3] was 10/16.

In the case of “Gro-β N69D: variant of Gro-β with aspartic acid in place of asparagine at position 69 (SEQ ID NO: 3)”, the “potency of hematopoietic stem and progenitor cell mobilization relative to Gro-β” value [4] is listed as “superior potency”.

In the case of “Gro-β T N65D: variant of Gro-β T with aspartic acid in place of asparagine at position 65 (SEQ ID NO: 4)”, the “potency of hematopoietic stem and progenitor cell mobilization relative to Gro-β T” value ([4]; described in U.S. Pat. No. 6,447,766) is listed as “substantially greater than that of Gro-β T”.

In the case of “Gro-β T: CXCR2 agonist; Gro-β with deletion of the first four amino acids from the N-terminus (SEQ ID NO: 2)”, the “mobilization of stem and progenitor cells” value [5] is listed as “rapid mobilization” and the “potency of hematopoietic stem and progenitor cell mobilization relative to Gro-β” value [4] is listed as “superior to that of Gro-β by multiple orders of magnitude”.

B1: G-CSF: Filgrastim (G-CSF), most common clinical hematopoietic stem cell mobilization protocol (protein, chains of the INN, looked up)
chain: MTPLGPASSLPQSFLLKCLEQVRKIQGDGAALQEKLCATYKLCHPEELVLLGHSLGIPWAPLSSCPSQALQLAGCLSQLHSGLFLYQGLLQALEGISPELGPTLDTLQLDVADFATTIWQQMEELGMAPALQPTQGAMPAFASAFQRRAGGVLVASHLQSFLEVSYRVLRHLAQP
For B1, the “increase over baseline in the number of CD34^dim cells” value (CD34^dim cells) was “about a nine-fold increase”, the “numbers of T-cells as compared to mice transplanted with Gro-β T and AMD3100-mobilized PBMCs” value [3] was “approximately 10 fold” and the “mice died of aGVHD at day 24” value [3] was 3/16. For the same molecule, the “mice remained alive at day 60 post-transplant” value [3] was 11/16.
